According to PubChem BioAssay (NCI):
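Results reflect a 48-hour exposure of cells in 96-well plates to compound at five concentrations. GI50 = concentration required for 50% inhibition of growth. TGI denotes the concentration required for complete inhibition of growth.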

Legend:
Test in all cases: NCI tumour cell line growth inhibition, 48 h
[1] = test system: COLO 205 colon
[2] = test system: HT29 colon
[3] = test system: MCF7 breast
[4] = test system: NCI/ADR-RES ovarian
[5] = test system: MDA-MB-435
[6] = test system: SNB-75 CNS
[7] = test system: IGROV1 ovarian
[8] = test system: NCI-H460 lung
[9] = test system: SF-539 CNS
[10] = test system: A498 renal

Row | Compound | TGI [1] [µM] | TGI [2] [µM] | TGI [3] [µM] | TGI [4] [µM] | TGI [5] [µM] | TGI [6] [µM] | TGI [7] [µM] | TGI [8] [µM] | TGI [9] [µM] | GI50 [1] [µM] | GI50 [2] [µM] | GI50 [3] [µM] | GI50 [4] [µM] | GI50 [5] [µM] | GI50 [6] [µM] | GI50 [10] [µM] | TGI [10] [µM] | GI50 [7] [µM] | GI50 [8] [µM] | GI50 [9] [µM]
1 | CSC(SC)(C(=O)O)c1cc(-c2c(Cl)cccc2Cl)no1 | > 100 | > 100 | > 100 | > 100 | > 100 | > 100 | > 100 | > 100 | > 100 | – | – | – | – | – | – | – | – | – | – | –
2 | Cc1cn(C2CC(OC(=O)c3ccc(Cl)cc3)C(COC(=O)c3ccc(Cl)cc3)O2)c(=O)[nH]c1=O (stereo unspecified) | > 100 | > 100 | > 100 | > 100 | > 100 | > 100 | > 100 | > 100 | – | – | – | – | – | – | – | – | – | – | – | –
3 | CC1(C)N=C(N)N=C(N)N1c1ccc(CCC(=O)Nc2ccc(S(=O)(=O)F)cc2)c(Cl)c1 | > 100 | > 100 | > 100 | > 100 | > 100 | > 100 | > 86.5 | > 100 | > 38.7 | 2.52 | 0.15 | 0.515 | > 100 | 0.296 | 9.75 | 61.9 | > 100 | 0.0551 | 0.0716 | 0.509
4 | CN(C)C/C=C/C(=O)Nc1ccc(C(=O)N[C@@]2(C)CCC[C@@H](Nc3ncc(Cl)c(-c4c[nH]c5ccccc45)n3)C2)nc1 | 0.026 | 1.09 | – | – | 0.112 | 0.0427 | – | 0.386 | 0.0929 | 0.01 | < 0.01 | – | – | 0.0108 | 0.0137 | 0.0189 | 0.0621 | – | < 0.01 | 0.0195
5 | COc1cc(C2c3cc4c(cc3OC(C)(N3CCCC3)C2C)OCO4)cc(OC)c1OC (stereo unspecified) | 0.528 | 0.836 | 16.3 | 0.522 | 0.377 | 0.65 | 46.7 | 19.2 | 0.716 | – | – | – | – | – | – | – | 5.7 | – | – | –
6 | O=S(=O)(C1=CC(S(=O)(=O)c2ccccc2)CN(Cc2ccccc2)C1c1cccc2ccccc12)c1ccccc1 (stereo unspecified) | – | > 69 | – | – | – | > 69 | > 69 | > 69 | > 69 | – | – | – | – | – | – | – | > 69 | – | – | –
7 | O=C(NC(=O)c1c(F)cccc1F)Nc1cccc(Oc2ncc(Cl)cn2)c1 | > 100 | > 46.4 | > 100 | > 100 | > 22.8 | 60.3 | > 100 | – | > 100 | – | – | – | – | – | – | – | > 100 | – | – | –
8 | COCCOC(=O)C1=C(O)c2ccccc2S(=O)(=O)N1C | > 100 | > 100 | – | > 100 | > 100 | 87.6 | > 100 | > 100 | > 100 | – | – | – | – | – | – | – | > 100 | – | – | –
9 | C=C(C)[C@@H]1CC[C@]2(COCCCN)CC[C@]3(C)[C@H](CC[C@@H]4[C@@](C)(CCCNCCCN)[C@H](C(=C)C)CC[C@]43C)[C@@H]12 | 3.48 | – | 3.22 | 3.63 | 3.41 | – | 2.9 | 3.44 | 3.21 | 1.78 | – | 1.59 | 1.88 | 1.84 | – | 14.5 | 37.1 | 1.49 | 1.8 | 1.76
10 | CC(C)(C)c1cc([N+](=O)[O-])cc([N+](=O)[O-])c1O | > 10 | > 10 | > 10 | > 10 | > 10 | > 10 | > 10 | > 10 | > 10 | – | – | – | – | – | – | – | – | – | – | –
11 | Cc1ccc(S(=O)(=O)N/N=C2\CCCCC23CCC(=O)NC3)cc1 (stereo unspecified) | > 100 | – | – | – | – | > 100 | > 100 | > 100 | > 100 | – | – | – | – | – | – | – | > 100 | – | – | –
12 | O=C(Nc1ccc(C(F)(F)F)cc1[N+](=O)[O-])C(=O)C1NC(=S)NC1=O (stereo unspecified) | 26.6 | > 100 | – | – | – | 97.2 | > 100 | > 100 | > 100 | – | – | – | – | – | – | – | > 100 | – | – | –
13 | CCCOC(=O)N[C@H]1CCc2c(Cl)c(OC)c(OC)c(OC)c2-c2ccc(SC)c(=O)cc21 | – | 37.6 | 13.1 | 21.6 | < 0.01 | 14.5 | > 65.6 | 0.944 | < 0.0356 | – | < 0.01 | < 0.01 | 0.0269 | < 0.01 | < 0.01 | < 0.01 | < 0.01 | < 0.01 | < 0.0112 | < 0.01
14 | COc1ccc(NC(=O)CC/C(CC(=O)c2ccco2)=N/NC(=O)C(N)=O)cc1 | > 100 | > 100 | – | – | – | > 100 | > 100 | > 100 | > 100 | – | – | – | – | – | – | – | > 100 | – | – | –
15 | CCN1CCCc2cc3c(C(F)(F)F)cc(=O)oc3cc21 | > 100 | > 100 | > 100 | – | > 100 | 96.7 | > 100 | > 100 | > 100 | – | – | – | – | – | – | – | > 100 | – | – | –
16 | CC(=O)Oc1c(C)c(-c2ccccc2)c(C)c(-c2ccccc2)c1C(=S)c1ccccc1 | > 100 | > 100 | – | – | – | > 100 | > 100 | > 100 | > 100 | – | – | – | – | – | – | – | > 100 | – | – | –
17 | COc1ccc([C@@]2(O)c3c(ccc(O)c3OC)[C@H]2OC)c(OC)c1 | > 100 | > 100 | – | – | – | > 100 | > 100 | > 100 | – | – | – | – | – | – | – | – | > 100 | – | – | –
18 | COc1cc(NS(=O)(=O)c2ccc(C)cc2)c2nccnc2c1 | 90.1 | > 100 | – | – | – | 78.1 | > 100 | > 100 | 83.8 | – | – | – | – | – | – | – | > 100 | – | – | –
19 | O=C1C=C(Nc2ccccc2C(=O)CC(=O)C(=O)Nc2cccc([N+](=O)[O-])c2)c2ccccc2C1=O | > 100 | > 100 | – | – | – | > 100 | > 100 | > 100 | > 100 | – | – | – | – | – | – | – | > 100 | – | – | –
20 | CCCC1(CC(=O)O)OCCc2c1[nH]c1ccccc21 (stereo unspecified) | > 100 | – | – | – | – | > 100 | > 100 | – | > 100 | – | – | – | – | – | – | – | > 100 | – | – | –
21 | COC(=O)C(=O)CC(=O)CCn1[nH]c(=O)c(Cl)c(Cl)c1=O | > 100 | > 100 | – | – | – | > 100 | > 100 | > 100 | > 100 | – | – | – | – | – | – | – | > 100 | – | – | –
